Data set [1] can be described thus: collision cross section (TWIMS, N2) of ion [M-H]-; higher = larger gas-phase ion cross section. The conditions noted are these: ionization: ESI negative; LC: HILIC, pH 9.0 ammonium acetate. The method, then:
(§1)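 Reference standards (20-100 uM) were separated by HILIC UPLC (BEH HILIC, 45 °C): acidic pH 3.0 ammonium formate/formic acid for ESI+ and basic pH 9.0 ammonium acetate/ammonia for ESI-. They were analysed on a Synapt G2-Si traveling-wave IMS-QTOF with nitrogen drift gas (WH 30 V; WV 800 m/s in ESI+ and 1000 m/s in ESI-).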

A short description of data set [2]: retention time on BEH HILIC column (20 min gradient, 0.4 mL/min); higher = later elution. Particulars: LC: HILIC. Here is the method:
as §1

Data set [3] can be described thus: collision cross section (TWIMS, N2) of ion [M+H]+; higher = larger gas-phase ion cross section. Particulars: ionization: ESI positive; LC: HILIC, pH 3.0 ammonium formate. The method, then:
as §1

Setting [4] is: ionization: ESI negative, pH 9.0 ammonium acetate.
Where [5] appears, read: ionization: ESI positive, pH 3.0 ammonium formate.

Consider 21 compounds from the supplement of paper PMC11127212.

Regarding `O=C(O)C(O)CCO` (stereo unspecified) [2,4-dihydroxybutyric acid], in data set [1], the collision cross section amounted to 119.85 Å². In addition, in data set [2] (setting [4]), the “retention time on BEH HILIC column” value turned out to be 4.91 min.
For `Nc1ccccc1C(=O)O` [2-aminobenzoic acid], the results for the collision cross section in data set [3] and in data set [1] were 124.05 Å² and 126.13 Å², respectively. For the same compound, the “retention time on BEH HILIC column” value was found to be 0.97 min in data set [2] (setting [4]) and 0.82 min in data set [2] (setting [5]).
For `CC[C@H](N)C(=O)O` [2-aminobutyric acid], the collision cross section in data set [1] was 121.74 Å². In addition, in data set [2] (setting [4]), the “retention time on BEH HILIC column” value stood at 7.05 min.
With `CCC(CO)C(=O)O` (stereo unspecified) [2-ethylhydracrylic acid], the collision cross section in data set [1] is 123.21 Å². Besides, in data set [2] (setting [4]), the “retention time on BEH HILIC column” value came to 1.03 min.
The matching figures for `CCC(C)(O)C(=O)O` (stereo unspecified) [2-hydroxy-2-methyl butyric acid]: 124.78 Å² and 1.55 min.
In data set [1], `CC[C@H](O)C(=O)O` [2-hydroxybutyric acid] had a collision cross section of 119.98 Å². In addition, the “retention time on BEH HILIC column” value in data set [2] (setting [4]) was 1.95 min.
The matching figures for `CCCCC(C)C(=O)O` (stereo unspecified) [2-methylhexanoic acid]: 134.11 Å² and 0.8 min.
The matching figures for `CC(O)C(C)C(=O)O` (stereo unspecified) [3-hydroxy-2-methylbutanoic acid]: 124.78 Å² and 1.1 min.
With `C[C@@H](O)CC(=O)O` [3-hydroxybutyric acid], the collision cross section in data set [1] was 107.41 Å². Further, the “retention time on BEH HILIC column” value in data set [2] (setting [4]) is 0.97 min.
For `CC[C@H](C)C(=O)C(=O)O` [3-methyl-2-oxopentanoic acid], the collision cross section in data set [1] amounted to 126.71 Å². The “retention time on BEH HILIC column” value in data set [2] (setting [4]) stood at 1.93 min.
Consider `CCC(C)CCC(=O)O` (stereo unspecified) [4-methylhexanoic acid], for which the collision cross section in data set [3] was determined as 137.57 Å²; in data set [1] it was 134.11 Å². For the same compound, the “retention time on BEH HILIC column” value in data set [2] (setting [4]) amounted to 0.88 min; in data set [2] (setting [5]) it was 0.99 min.
The compound `Nc1ncnc2c1ncn2[C@@H]1O[C@H](COP(=O)(O)OP(=O)(O)O)[C@@H](O)[C@H]1O` [ADP] showed a collision cross section in data set [1] of 183.67 Å². Moreover, the “retention time on BEH HILIC column” value in data set [2] (setting [4]) came out at 12.6 min.
Take `Nc1ncnc2c1ncn2[C@@H]1O[C@H](COP(=O)(O)O)[C@@H](O)[C@H]1O` [AMP]: the collision cross section came out at 167.89 Å² in data set [3] and 175.53 Å² in data set [1]. Also, the “retention time on BEH HILIC column” value in data set [2] (setting [4]) was 12 min; in data set [2] (setting [5]), 9.15 min.
`Nc1ncnc2c1ncn2[C@@H]1O[C@H](COP(=O)(O)OP(=O)(O)OP(=O)(O)O)[C@@H](O)[C@H]1O` [ATP] had a collision cross section in data set [1] of 190.77 Å². Also, the “retention time on BEH HILIC column” value in data set [2] (setting [4]) came to 12.3 min.
In the case of `CC(=O)SCCNC(=O)CCNC(=O)[C@H](O)C(C)(C)COP(=O)(O)OP(=O)(O)OC[C@H]1O[C@@H](n2cnc3c(N)ncnc32)[C@H](O)[C@@H]1OP(=O)(O)O` [Acetyl-CoA], the collision cross section in data set [3] amounted to 248.16 Å²; in data set [1] it was 256.25 Å². In addition, the “retention time on BEH HILIC column” value in data set [2] (setting [4]) was 11.8 min; in data set [2] (setting [5]), 12 min.
With `Nc1ncnc2c1ncn2[C@@H]1O[C@H](CO)[C@@H](O)[C@H]1O` [Adenosine], the collision cross section came to 155.89 Å² in data set [3] and 155.95 Å² in data set [1]. Moreover, the “retention time on BEH HILIC column” value stood at 2.36 min in data set [2] (setting [4]) and 2.24 min in data set [2] (setting [5]).
The matching figures for `CCCCC/C=C\C/C=C\C/C=C\C/C=C\CCCC(=O)O` [Arachidonic acid]: 178.98 Å², 186.98 Å², 0.72 min and 0.77 min.
On to `O=C1O[C@H]([C@@H](O)CO)C(O)=C1O` [Ascorbic acid], for which the results for the collision cross section in data set [3] and in data set [1] were 134.39 Å² and 122.95 Å², respectively. Further, the “retention time on BEH HILIC column” value in data set [2] (setting [4]) was 1.17 min; in data set [2] (setting [5]), 0.72 min.
`CCCC(=O)O` [Butyric acid] gave a collision cross section in data set [1] of 122.31 Å². Moreover, in data set [2] (setting [4]), the “retention time on BEH HILIC column” value came out at 3.72 min.
For `CCCCCCCC(=O)O` [Caprylic acid] the same measures were 141.36 Å² and 0.77 min.
Consider `O=C(O)CC(O)(CC(=O)O)C(=O)O` [Citric acid], for which the collision cross section in data set [1] is on record as 128.76 Å². Further, the “retention time on BEH HILIC column” value in data set [2] (setting [4]) worked out at 11.1 min.
